Laboratory results published in patent US7462600B2, “Macrolides” (Pfizer Inc, priority 2004, dated 2008).
Converted amounts (≈) assume the structure as drawn. Where two headings read alike, the source gives them in different places.

Legend:
Assay type in all cases: cell-based
[1] = test system: Streptococcus pyogenes 1079; experiment: MIC, microtiter broth dilution (NCCLS M100-S14), S. pyogenes 1079 (ermB)
Outline: (§1)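 Susceptibility testing used microtiter trays with broth dilution. Values are minimum inhibitory concentrations interpreted under NCCLS guidance (M100-S14).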

[2] = test system: Streptococcus pneumoniae 1016; experiment: MIC, microtiter broth dilution (NCCLS M100-S14), S. pneumoniae 1016 (susceptible)
Outline: as §1

[3] = test system: Haemophilus influenzae 1218; experiment: MIC, microtiter broth dilution (NCCLS M100-S14), H. influenzae 1218 (susceptible)
Outline: as §1

[4] = test system: Streptococcus pneumoniae 1095; conditions: microtiter broth dilution
Outline: as §1

[5] = test system: Streptococcus pneumoniae 1175; conditions: microtiter broth dilution
Outline: as §1

[6] = S. pneumoniae 1016 (susceptible)
[7] = H. influenzae 1218 (susceptible)

Row | SMILES | MIC S. pyogenes 1079 ([1]; S. pyogenes 1079 (ermB)) [µg/mL] | MIC S. pneumo. 1016 [2, 6] [µg/mL] | MIC H. influenzae 1218 [3, 7] [µg/mL] | MIC S. pneumo. 1095 ([4]; S. pneumoniae 1095 (ermB)) [µg/mL] | MIC S. pneumo. 1175 ([5]; S. pneumoniae 1175 (mefA)) [µg/mL] | MIC S. pyogenes 1079 ([1]; Streptococcus pyogenes 1079) [µg/mL] | MIC S. pneumo. 1016 ([2]; Streptococcus pneumoniae 1016) [µg/mL] | MIC H. influenzae 1218 ([3]; Haemophilus influenzae 1218) [µg/mL] | MIC S. pneumo. 1095 ([4]; Streptococcus pneumoniae 1095) [µg/mL] | MIC S. pneumo. 1175 ([5]; Streptococcus pneumoniae 1175) [µg/mL]
1 | CCC1OC(=O)C(C)C(=O)C(C)C(OC2OC(C)CC(N(C)C)C2O)C(C)(OC)CC(C)C(=O)C(C)C2N(CC3C4CN(Cc5cccnc5)CC43)C(=O)OC12C (stereo not drawn) [16.04] | >100.00 | 0.03 (≈ 0.0375 µM) | 0.5 (≈ 0.626 µM) | 3.12 (≈ 3.9 µM) | >100.00 | – | – | – | – | –
2 | CCC1OC(=O)C(C)C(=O)C(C)C(OC2OC(C)CC(N(C)C)C2O)C(C)(OC)CC(C)C(=O)C(C)C2N(CC3C4CN(C(=O)c5cccc(C#N)c5)CC43)C(=O)OC12C (stereo not drawn) [16.05] | 3.12 (≈ 3.73 µM) | 0.01 (≈ 0.0119 µM) | 0.5 (≈ 0.597 µM) | 1.56 (≈ 1.86 µM) | 1.56 (≈ 1.86 µM) | – | – | – | – | –
3 | CCC1OC(=O)C(C)C(=O)C(C)C(OC2OC(C)CC(N(C)C)C2O)C(C)(OC)CC(C)C(=O)C(C)C2N(C3CN(Cc4ccccc4)C3)C(=O)OC12C (stereo not drawn) [Example 1.01, benzyl] | – | – | – | – | – | >64.00 | <0.06 | 0.5 (≈ 0.66 µM) | <0.06 | 0.12 (≈ 0.158 µM)
4 | CCC1OC(=O)C(C)C(=O)C(C)C(OC2OC(C)CC(N(C)C)C2O)C(C)(OC)CC(C)C(=O)C(C)C2N(C3CN(Cc4ccccn4)C3)C(=O)OC12C (stereo not drawn) [Example 1.02, (pyridin-2-yl)methyl] | – | – | – | – | – | >64.00 | <0.06 | 0.25 (≈ 0.329 µM) | 0.12 (≈ 0.158 µM) | 0.12 (≈ 0.158 µM)
5 | CCC1OC(=O)C(C)C(=O)C(C)C(OC2OC(C)CC(N(C)C)C2O)C(C)(OC)CC(C)C(=O)C(C)C2N(C3CN(Cc4cccnc4)C3)C(=O)OC12C (stereo not drawn) [Example 1.03, (pyridin-3-yl)methyl] | – | – | – | – | – | >64.00 | <0.06 | 0.5 (≈ 0.659 µM) | <0.06 | 2 (≈ 2.64 µM)
6 | CCC1OC(=O)C(C)C(=O)C(C)C(OC2OC(C)CC(N(C)C)C2O)C(C)(OC)CC(C)C(=O)C(C)C2N(C3CN(Cc4ccncc4)C3)C(=O)OC12C (stereo not drawn) [Example 1.04, (pyridin-4-yl)methyl] | – | – | – | – | – | >64.00 | <0.06 | 0.25 (≈ 0.329 µM) | 0.12 (≈ 0.158 µM) | 0.5 (≈ 0.659 µM)
7 | CCC1OC(=O)C(C)C(=O)C(C)C(OC2OC(C)CC(N(C)C)C2O)C(C)(OC)CC(C)C(=O)C(C)C2N(C3CN(Cc4cccc5cccnc45)C3)C(=O)OC12C (stereo not drawn) [Example 1.05, (quinolin-8-yl)methyl] | – | – | – | – | – | 64 (≈ 79.1 µM) | <0.06 | 0.25 (≈ 0.309 µM) | <0.06 | 0.12 (≈ 0.148 µM)
8 | CCC1OC(=O)C(C)C(=O)C(C)C(OC2OC(C)CC(N(C)C)C2O)C(C)(OC)CC(C)C(=O)C(C)C2N(C3CN(Cc4cccc5ncccc45)C3)C(=O)OC12C (stereo not drawn) [Example 1.06, 3-descladinosyl-11,12-dideoxy-6-O-methyl-3-oxo-12,11-(oxycarbonyl-(1-((quinolin-5-yl)-methyl)-azetidin-3-yl)-imino)-erythromycin A] | – | – | – | – | – | 4 (≈ 4.94 µM) | <0.06 | 1 (≈ 1.24 µM) | <0.06 | <0.06
9 | CCC1OC(=O)C(C)C(=O)C(C)C(OC2OC(C)CC(N(C)C)C2O)C(C)(OC)CC(C)C(=O)C(C)C2N(C3CN(Cc4cccc5nc[nH]c45)C3)C(=O)OC12C (stereo not drawn) [Example 1.11, 3-descladinosyl-11,12-dideoxy-6-O-methyl-3-oxo-12,11-(oxycarbonyl-(1-((1H-benzoimidazol-7-yl)-methy)-azetidin-3-yl)-imino)-erythromycin A] | – | – | – | – | – | 4 (≈ 5.01 µM) | <0.06 | <0.06 | <0.06 | 0.5 (≈ 0.627 µM)
